According to ChEMBL document CHEMBL4007388, “Synthesis and antiproliferative activity of monocationic arylthiophene derivatives” (Eur J Med Chem, 2017):

Assays:
CCRF-CEM = assay: Growth inhibition of human CCRF-CEM cells incubated for 48 hrs by sulforhodamine B assay; type: functional
HL-60(TB) = assay: Growth inhibition of human HL-60(TB) cells incubated for 48 hrs by sulforhodamine B assay; type: functional; settings: HL-60, 48 h
RPMI-8226 = assay: Growth inhibition of human RPMI8226 cells incubated for 48 hrs by sulforhodamine B assay; type: functional; settings: RPMI-8226, 48 h
SR = assay: Growth inhibition of human SR cells incubated for 48 hrs by sulforhodamine B assay; type: functional
HOP-62 = assay: Growth inhibition of human HOP62 cells incubated for 48 hrs by sulforhodamine B assay; type: functional; settings: HOP-62, 48 h
HOP-92 = assay: Growth inhibition of human HOP92 cells incubated for 48 hrs by sulforhodamine B assay; type: functional; settings: HOP-92, 48 h
NCI-H226 = assay: Growth inhibition of human NCI-H226 cells incubated for 48 hrs by sulforhodamine B assay; type: functional; settings: NCI-H226, 48 h
NCI-H23 = assay: Growth inhibition of human NCI-H23 cells incubated for 48 hrs by sulforhodamine B assay; type: functional; settings: NCI-H23, 48 h
NCI-H460 = assay: Growth inhibition of human NCI-H460 cells incubated for 48 hrs by sulforhodamine B assay; type: functional; settings: NCI-H460, 48 h
NCI-H522 = assay: Growth inhibition of human NCI-H522 cells incubated for 48 hrs by sulforhodamine B assay; type: functional; settings: NCI-H522, 48 h
COLO 205 = assay: Growth inhibition of human COLO205 cells incubated for 48 hrs by sulforhodamine B assay; type: functional; settings: COLO 205, 48 h
HCC 2998 = assay: Growth inhibition of human HCC2998 cells incubated for 48 hrs by sulforhodamine B assay; type: functional; settings: HCC 2998, 48 h
HCT-116 = assay: Growth inhibition of human HCT116 cells incubated for 48 hrs by sulforhodamine B assay; type: functional; settings: HCT-116, 48 h
HCT-15 = assay: Growth inhibition of human HCT15 cells incubated for 48 hrs by sulforhodamine B assay; type: functional; settings: HCT-15, 48 h
HT-29 = assay: Growth inhibition of human HT-29 cells incubated for 48 hrs by sulforhodamine B assay; type: functional; settings: HT-29, 48 h
KM12 = assay: Growth inhibition of human KM12 cells incubated for 48 hrs by sulforhodamine B assay; type: functional; settings: KM12, 48 h
SW-620 = assay: Growth inhibition of human SW620 cells incubated for 48 hrs by sulforhodamine B assay; type: functional; settings: SW-620, 48 h
SF-539 = assay: Growth inhibition of human SF539 cells incubated for 48 hrs by sulforhodamine B assay; type: functional; settings: SF-539, 48 h
SNB-19 = assay: Growth inhibition of human SNB19 cells incubated for 48 hrs by sulforhodamine B assay; type: functional; settings: SNB-19, 48 h
SNB-75 = assay: Growth inhibition of human SNB75 cells incubated for 48 hrs by sulforhodamine B assay; type: functional; settings: SNB-75, 48 h
U-251 = assay: Growth inhibition of human U251 cells incubated for 48 hrs by sulforhodamine B assay; type: functional; settings: U-251, 48 h
Malme-3M = assay: Growth inhibition of human MALME-3M cells incubated for 48 hrs by sulforhodamine B assay; type: functional
SK-MEL-2 = assay: Growth inhibition of human SK-MEL-2 cells incubated for 48 hrs by sulforhodamine B assay; type: functional; settings: SK-MEL-2, 48 h
SK-MEL-28 = assay: Growth inhibition of human SK-MEL-28 cells incubated for 48 hrs by sulforhodamine B assay; type: functional; settings: SK-MEL-28, 48 h
SK-MEL-5 = assay: Growth inhibition of human SK-MEL-5 cells incubated for 48 hrs by sulforhodamine B assay; type: functional; settings: SK-MEL-5, 48 h
UACC-257 = assay: Growth inhibition of human UACC257 cells incubated for 48 hrs by sulforhodamine B assay; type: functional; settings: UACC-257, 48 h
UACC-62 = assay: Growth inhibition of human UACC62 cells incubated for 48 hrs by sulforhodamine B assay; type: functional; settings: UACC-62, 48 h
IGROV-1 = assay: Growth inhibition of human IGROV1 cells incubated for 48 hrs by sulforhodamine B assay; type: functional; settings: IGROV-1, 48 h
OVCAR-3 = assay: Growth inhibition of human OVCAR3 cells incubated for 48 hrs by sulforhodamine B assay; type: functional; settings: OVCAR-3, 48 h
OVCAR-8 = assay: Growth inhibition of human OVCAR8 cells incubated for 48 hrs by sulforhodamine B assay; type: functional; settings: OVCAR-8, 48 h
NCI/ADR-RES = assay: Growth inhibition of human NCI/ADR-RES cells incubated for 48 hrs by sulforhodamine B assay; type: functional
SK-OV-3 = assay: Growth inhibition of human SKOV3 cells incubated for 48 hrs by sulforhodamine B assay; type: functional; settings: SK-OV-3, 48 h
A498 = assay: Growth inhibition of human A498 cells incubated for 48 hrs by sulforhodamine B assay; type: functional; settings: A498, 48 h
ACHN = assay: Growth inhibition of human ACHN cells incubated for 48 hrs by sulforhodamine B assay; type: functional
CAKI-1 = assay: Growth inhibition of human Caki1 cells incubated for 48 hrs by sulforhodamine B assay; type: functional; settings: CAKI-1, 48 h
RXF 393 = assay: Growth inhibition of human RXF393 cells incubated for 48 hrs by sulforhodamine B assay; type: functional; settings: RXF 393, 48 h
SN12C = assay: Growth inhibition of human SN12C cells incubated for 48 hrs by sulforhodamine B assay; type: functional
TK-10 = assay: Growth inhibition of human TK10 cells incubated for 48 hrs by sulforhodamine B assay; type: functional; settings: TK-10, 48 h
UO-31 = assay: Growth inhibition of human UO31 cells incubated for 48 hrs by sulforhodamine B assay; type: functional; settings: UO-31, 48 h
DU-145 = assay: Growth inhibition of human DU145 cells incubated for 48 hrs by sulforhodamine B assay; type: functional; settings: DU-145, 48 h
Hs-578T = assay: Growth inhibition of human Hs 578T cells incubated for 48 hrs by sulforhodamine B assay; type: functional
BT-549 = assay: Growth inhibition of human BT549 cells incubated for 48 hrs by sulforhodamine B assay; type: functional; settings: BT-549, 48 h
MDA-MB-468 = assay: Growth inhibition of human MDA-MB-468 cells incubated for 48 hrs by sulforhodamine B assay; type: functional; settings: MDA-MB-468, 48 h
WI-38 = assay: Cytotoxicity against human WI38 cells assessed as reduction in cell viability after 24 hrs by MTT assay; type: cell-based; settings: WI-38, 24 h
WISH = assay: Cytotoxicity against human WISH cells assessed as reduction in cell viability after 24 hrs by MTT assay; type: cell-based
[1] = Antioxidant activity assessed as superoxide dismutase-like activity by measuring inhibition of superoxide radical anion production at 2 uM by NBT reduction assay relative to control; type: functional
Escherichia coli = assay: Induction of Escherichia coli genomic DNA cleavage after 1 hr by agarose gel electrophoresis method
Homo sapiens = species: Homo sapiens; assay: Inhibition of PTK in human MCF7 cells at 1 uM preincubated for 2 hrs followed by poly-Glu-Tyr substrate addition by ELISA relative to control; type: cell-based

Compound: N=C(N)c1ccc(-c2ccc(-c3ccccc3)s2)cc1F
- GI50 (CCRF-CEM): 3.2 µM
- GI50 (HL-60(TB)): 2.14 µM
- GI50 (RPMI-8226): 2.78 µM
- GI50 (SR): 3.11 µM
- GI50 (HOP-62): 10.5 µM
- GI50 (HOP-92): 1.31 µM
- GI50 (NCI-H226): 12.9 µM
- GI50 (NCI-H23): 11.6 µM
- GI50 (NCI-H460): 3.69 µM
- GI50 (NCI-H522): 6.8 µM
- GI50 (COLO 205): 1.82 µM
- GI50 (HCC 2998): 2.45 µM
- GI50 (HCT-116): 3.26 µM
- GI50 (HCT-15): 4.62 µM
- GI50 (HT-29): 3.4 µM
- GI50 (KM12): 4.41 µM
- GI50 (SW-620): 4.05 µM
- GI50 (SF-539): 4.74 µM
- GI50 (SNB-19): 11.7 µM
- GI50 (SNB-75): 10.5 µM
- GI50 (U-251): 4.7 µM
- GI50 (Malme-3M): 3.25 µM
- GI50 (SK-MEL-2): 4.91 µM
- GI50 (SK-MEL-28): 8.23 µM
- GI50 (SK-MEL-5): 3.43 µM
- GI50 (UACC-257): 2.18 µM
- GI50 (UACC-62): 10.3 µM
- GI50 (IGROV-1): 5.29 µM
- GI50 (OVCAR-3): 8.9 µM
- GI50 (OVCAR-8): 11.3 µM
- GI50 (NCI/ADR-RES): 14.1 µM
- GI50 (SK-OV-3): 10.2 µM
- GI50 (A498): 12.8 µM
- GI50 (ACHN): 6.56 µM
- GI50 (CAKI-1): 6.79 µM
- GI50 (RXF 393): 7.01 µM
- GI50 (SN12C): 8.01 µM
- GI50 (TK-10): 10.7 µM
- GI50 (UO-31): 2.68 µM
- GI50 (DU-145): 11.3 µM
- GI50 (Hs-578T): 10.9 µM
- GI50 (BT-549): 10.7 µM
- GI50 (MDA-MB-468): 2.04 µM
- IC50 (WI-38): 91.5 µM
- IC50 (WISH): 82.2 µM
- inhibition [1]: 54.5%
- Activity (Escherichia coli): Dose-dependent effect
- inhibition (Homo sapiens): 19 to 36%

Compound: COc1cc(OC)cc(-c2ccc(-c3ccc(C(=N)N)cc3)s2)c1
- GI50 (CCRF-CEM): 1.88 µM
- GI50 (HL-60(TB)): 1.9 µM
- GI50 (RPMI-8226): 1.46 µM
- GI50 (SR): 0.231 µM
- GI50 (HOP-62): 1.9 µM
- GI50 (HOP-92): 1.75 µM
- GI50 (NCI-H226): 2.23 µM
- GI50 (NCI-H23): 1.92 µM
- GI50 (NCI-H460): 1.84 µM
- GI50 (NCI-H522): 1.96 µM
- GI50 (COLO 205): 1.33 µM
- GI50 (HCC 2998): 1.82 µM
- GI50 (HCT-116): 1.76 µM
- GI50 (HCT-15): 1.22 µM
- GI50 (HT-29): 1.09 µM
- GI50 (KM12): 1.84 µM
- GI50 (SW-620): 1.95 µM
- GI50 (SF-539): 1.75 µM
- GI50 (SNB-19): 1.97 µM
- GI50 (SNB-75): 1.58 µM
- GI50 (U-251): 1.67 µM
- GI50 (Malme-3M): 1.84 µM
- GI50 (SK-MEL-2): 1.95 µM
- GI50 (SK-MEL-28): 1.79 µM
- GI50 (SK-MEL-5): 1.81 µM
- GI50 (UACC-257): 2.76 µM
- GI50 (UACC-62): 1.87 µM
- GI50 (IGROV-1): 2.11 µM
- GI50 (OVCAR-3): 1.95 µM
- GI50 (OVCAR-8): 2.48 µM
- GI50 (NCI/ADR-RES): 1.97 µM
- GI50 (SK-OV-3): 2.08 µM
- GI50 (A498): 1.73 µM
- GI50 (ACHN): 1.77 µM
- GI50 (CAKI-1): 1.81 µM
- GI50 (RXF 393): 1.81 µM
- GI50 (SN12C): 1.97 µM
- GI50 (TK-10): 1.97 µM
- GI50 (UO-31): 1.77 µM
- GI50 (DU-145): 1.77 µM
- GI50 (Hs-578T): 1.99 µM
- GI50 (BT-549): 1.8 µM
- GI50 (MDA-MB-468): 1.68 µM
- IC50 (WI-38): 73.9 µM
- IC50 (WISH): 87.2 µM
- inhibition [1]: 57%
- Activity (Escherichia coli): Dose-dependent effect
- inhibition (Homo sapiens): 19 to 36%
